The results in this text go back to US9137998B2, “Pesticidal compositions and related methods” (DOW AGROSCIENCES LLC, priority 2013, dated 2015).

Usually melting point stands for the temperature of the solid-liquid transition. Usually mortality stands for the percentage killed.

For data set [1], the system named is Green Peach Aphid (Myzus persicae) (GPA) (MYZUPE). The experiment in a line: Bioassay for Green Peach Aphid (GPA), foliar spray on cabbage seedlings. The note with it: Myzus persicae, 72 h, 200 ppm foliar spray, graded after three days, Abbott corrected % control, read-out: % Control (or Mortality) rating, GPA. The class given is in vivo. The protocol: Cabbage seedlings grown in 3-inch pots, with 2-3 small (3-5 cm) true leaves, were used as test substrate. The seedlings were infested with 20-50 GPA (wingless adult and nymph stages) one day prior to chemical application. Four pots with individual seedlings were used for each treatment. Test compounds (2 mg) were dissolved in 2 mL of acetone/methanol (1:1) solvent, forming stock solutions of 1000 ppm test compound. The stock solutions were diluted 5× with 0.025% Tween 20 in H2O to obtain the solution at 200 ppm test compound. A hand-held aspirator-type sprayer was used for spraying a solution to both sides of […] leaves until runoff. Reference plants (solvent check) were sprayed with the diluent only containing 20% by volume of acetone/methanol (1:1) solvent. Treated plants were held in a holding room for three days at approximately 25° C. and ambient relative humidity (RH) prior to grading. Evaluation was conducted by counting the number of live aphids per plant under a microscope. Percent control was measured by using Abbott's correction formula (W. S. Abbott, “A Method of Computing the Effectiveness of an Insecticide” J. Econ. Entomol. 18 (1925), pp. 265-267) as follows. Corrected % Control=100*(X−Y)/X
X=No. of live aphids on solvent check plants and
Y=No. of live aphids on treated plants
Biological Data for Green Peach Aphid (GPA) (MYZUPE) and Sweetpotato Whitefly-crawler (WF) (BEMITA)” (See Table Section).

The test system of data set [2] is Sweetpotato Whitefly-Crawler (Bemisia tabaci) (WF) (BEMITA). The experiment in a line: Insecticidal test for Sweetpotato Whitefly-crawler (WF) in foliar spray assay on cotton plants. The class given is in vivo. The note with it: Bemisia tabaci, 216 h, 200 ppm foliar spray, graded after 9 days, Abbott corrected % control, read-out: % Control (or Mortality) rating, WF. The protocol: Cotton plants (Gossypium hirsutum) grown in 3-inch pots, with 1 small (4-5 cm) true leaves, were used as test substrate. The plants were infested with 200-400 whitefly eggs 4-5 days prior to chemical application. Four pots with individual plants were used for each treatment. Test compounds (2 mg) were dissolved in 1 mL of acetone solvent, forming stock solutions of 2000 ppm test compound. The stock solutions were diluted 10× with 0.025% Tween 20 in H2O (diluents) to obtain the solution at 200 ppm test compound. A hand-held aspirator-type sprayer was used for spraying a solution to both sides of cotton leaves until runoff. Reference plants (solvent check) were sprayed with the diluent only containing 10% by volume of acetone solvent. Treated plants were held in a holding room for 9 days at approximately 25° C. and ambient relative humidity (RH) prior to grading. Evaluation was conducted by counting the number of live 3-4 nymph stage per plant under a microscope. Percent control was measured by using Abbott's correction formula (W. S. Abbott, “A Method of Computing the Effectiveness of an Insecticide” J. Econ. Entomol. 18 (1925), pp. 265-26′7) as follows. Corrected % Control=100*(X−Y)/X
X=No. of live nymphs on solvent check plants and
Y=No. of live nymphs on treated plants. […]

In turn, `C#CCN(C(=O)OC(C)(C)C)c1sc(Br)nc1C` [CA4, tert-Butyl (2-bromo-4-methylthiazol-5-yl)(prop-2-yn-1-yl)carbamate] came in with a melting point of 82 to 86 °C.

Compound `C#CCN(C(=O)OC(C)(C)C)c1sc(-c2cncnc2)nc1Cl` [CA10, tert-Butyl (4-chloro-2-(pyrimidin-5-yl)thiazol-5-yl)(prop-2-yn-1-yl) carbamate] yielded a melting point of 80 to 83 °C.

In the case of `C#CCN(C(=O)CCSCC1CC1(F)F)c1sc(-c2cccnc2)nc1C` (centres unmarked) [Compound P10, 3-(((2,2-Difluorocyclopropyl)methyl)thio)-N-(4-methyl-2-(pyridin-3-yl)thiazol-5-yl)-N-(prop-2-yn-1-yl)propanamide], the mortality at 200 ppm in data set [1] and in data set [2] was 80 to 100% in each case.

In the case of `CC#CCN(C(=O)CCSCCC(F)(F)F)c1sc(-c2cccnc2)nc1C` [Compound P16, N-(But-2-yn-1-yl)-N-(4-methyl-2-(pyridin-3-yl)thiazol-5-yl)-3-((3,3,3-trifluoropropyl)thio) propanamide], the mortality at 200 ppm in data set [1] and in data set [2] was 80 to 100% each time.

On to `CC#CCN(C(=O)CCSC)c1sc(-c2cccnc2)nc1C` [Compound P17, N-(But-2-yn-1-yl)-N-(4-methyl-2-(pyridin-3-yl)thiazol-5-yl)-3-(methylthio)propanamide], for which the mortality at 200 ppm in data set [1] and in data set [2] was 80 to 100% throughout.

Take `C#CCN(C(=O)CCSCCC(F)(F)F)c1sc(-c2cncc(F)c2)nc1C` [Compound P19, N-(2-(5-Fluoropyridin-3-yl)-4-methylthiazol-5-yl)-N-(prop-2-yn-1-yl)-3-((3,3,3-trifluoropropyl)thio)propanamide]: the mortality at 200 ppm in data set [1] and in data set [2] was 80 to 100% throughout.

On to `C#CCN(C(=O)CCSCC1CC1(F)F)c1sc(-c2cncc(F)c2)nc1C` (centres unmarked) [Compound P22, 3-(((2,2-Difluorocyclopropyl)methyl)thio)-N-(2-(5-fluoropyridin-3-yl)-4-methylthiazol-5-yl)-N-(prop-2-yn-1-yl)propanamide], for which the mortality at 200 ppm in data set [1] and in data set [2] was 80 to 100% each time.

For the compound `C#CC(C)N(C(=O)CCSCC1CC1(F)F)c1sc(-c2cccnc2)nc1C` (centres unmarked) [Compound P31, N-(But-3-yn-2-yl)-3-(((2,2-difluorocyclopropyl)methyl)thio)-N-(4-methyl-2-(pyridin-3-yl)thiazol-5-yl)propanamide], the mortality at 200 ppm in data set [1] and in data set [2] was 80 to 100% each time.

For the compound `C#CC(C)N(C(=O)CCSCCC(F)(F)F)c1sc(-c2cccnc2)nc1C` (centres unmarked) [Compound P32, N-(But-3-yn-2-yl)-N-(4-methyl-2-(pyridin-3-yl)thiazol-5-yl)-3-((3,3,3-trifluoropropyl)thio) propanamide], the mortality at 200 ppm in data set [1] and in data set [2] was 80 to 100% in each case.

On to `C#CCN(C(=O)CCSCCC(F)(F)F)c1sc(-c2cccnc2)nc1Cl` [FA1, N-(4-Chloro-2-(pyridin-3-yl)thiazol-5-yl)-N-(prop-2-yn-1-yl)-3-((3,3,3-trifluoropropyl)thio) propanamide], for which the mortality at 200 ppm in data set [1] and in data set [2] was 80 to 100% throughout.

Regarding `C#CCN(C(=O)CCSCCC(F)(F)F)c1sc(-c2cncc(F)c2)nc1Cl` [FA2, N-(4-Chloro-2-(5-fluoropyridin-3-yl)thiazol-5-yl)-N-(prop-2-yn-1-yl)-3-((3,3,3-trifluoropropyl)thio)propanamide], the mortality at 200 ppm in data set [1] and in data set [2] was 80 to 100% each time.

As to `C#CCN(C(=O)CCSCCC(F)(F)F)c1sc(-c2cncnc2)nc1Cl` [FA3, N-(4-chloro-2-(pyrimidin-5-yl)thiazol-5-yl)-N-(prop-2-yn-1-yl)-3-((3,3,3-trifluoropropyl)thio)propanamide], the mortality at 200 ppm in data set [1] and in data set [2] was 80 to 100% each time.

`C#CCN(C(=O)CCSC)c1sc(-c2cncc(F)c2)nc1C` [FA4, N-(2-(5-Fluoropyridin-3-yl)-4-methylthiazol-5-yl)-3-(methylthio)-N-(prop-2-yn-1-yl)propanamide]: the mortality at 200 ppm in data set [1] and in data set [2] was 80 to 100% each time.

With `C#CCN(C(=O)C(C)CSC)c1sc(-c2cncc(F)c2)nc1C` (centres unmarked) [FA5, N-(2-(5-Fluoropyridin-3-yl)-4-methylthiazol-5-yl)-2-methyl-3-(methylthio)-N-(prop-2-yn-1-yl) propanamide], the mortality at 200 ppm in data set [1] and in data set [2] was 80 to 100% in each case.

On to `C#CCN(C(=O)CC[S+]([O-])CCC(F)(F)F)c1sc(-c2cccnc2)nc1Cl` (centres unmarked) [FA6, N-(4-chloro-2-(pyridin-3-yl)thiazol-5-yl)-N-(prop-2-yn-1-yl)-3-((3,3,3trifluoropropyl)sulfinyl)propanamide], for which the mortality at 200 ppm in data set [1] and in data set [2] was 80 to 100% throughout.

Turning to `C#CCN(C(=O)CC[S+]([O-])CCC(F)(F)F)c1sc(-c2cncc(F)c2)nc1Cl` (centres unmarked) [FA7, N-(4-Chloro-2-(5-fluoropyridin-3-yl)thiazol-5-yl)-N-(prop-2-yn-1-yl)-3-((3,3,3-trifluoropropyl)sulfinyl)propanamide], the mortality at 200 ppm in data set [1] and in data set [2] was 80 to 100% each time.

For `C#CCN(C(=O)CC[S+]([O-])CCC(F)(F)F)c1sc(-c2cncnc2)nc1Cl` (centres unmarked) [FA8, N-(4-Chloro-2-(pyrimidin-5-yl)thiazol-5-yl)-N-(prop-2-yn-1-yl)-3-((3,3,3-trifluoropropyl)sulfinyl)propanamide], the mortality at 200 ppm in data set [1] and in data set [2] was 80 to 100% in each case.

Take `C#CCN(C(=O)CC[S+]([O-])CC1CC1(F)F)c1sc(-c2cccnc2)nc1C` (centres unmarked) [FA9, 3-(((2,2-Difluorocyclopropyl)methyl)sulfinyl)-N-(4-methyl-2-(pyridin-3-yl)thiazol-5-yl)-N-(prop-2-yn-1-yl)propanamide]: the mortality at 200 ppm in data set [1] and in data set [2] was 80 to 100% each time.

`C#CCN(C(=O)CCS(=O)(=O)CCC(F)(F)F)c1sc(-c2cccnc2)nc1Cl` [FA10, N-(4-chloro-2-(pyridin-3-yl)thiazol-5-yl)-N-(prop-2-yn-1-yl)-3-((3,3,3-trifluoropropyl)sulfonyl)propanamide]: the mortality at 200 ppm in data set [1] and in data set [2] was 80 to 100% in each case.

As for `C#CCN(C(=O)CCS(=O)(=O)CCC(F)(F)F)c1sc(-c2cncc(F)c2)nc1Cl` [FA11, N-(4-Chloro-2-(5-fluoropyridin-3-yl)thiazol-5-yl)-N-(prop-2-yn-1-yl)-3-((3,3,3-trifluoropropyl)sulfonyl)propanamide], the mortality at 200 ppm in data set [1] and in data set [2] was 80 to 100% throughout.

For `C#CCN(C(=O)CCS(=O)(=O)CCC(F)(F)F)c1sc(-c2cncnc2)nc1Cl` [FA12, N-(4-Chloro-2-(pyrimidin-5-yl)thiazol-5-yl)-N-(prop-2-yn-1-yl)-3-((3,3,3-trifluoropropyl)sulfonyl) propanamide], the mortality at 200 ppm in data set [1] and in data set [2] was 80 to 100% in each case.

`C#CCN(C(=O)CCS(=O)(=O)CC1CC1(F)F)c1sc(-c2cccnc2)nc1C` (centres unmarked) [FA13, 3-(((2,2-Difluorocyclopropyl)methyl)sulfonyl)-N-(4-methyl-2-(pyridin-3-yl)thiazol-5-yl)-N-(prop-2-yn-1-yl)propanamide]: the mortality at 200 ppm in data set [1] and in data set [2] was 80 to 100% throughout.

With `CC#CCN(C(=O)CCSCC1CC1(F)F)c1sc(-c2cccnc2)nc1C` (centres unmarked) [FA14, N-(But-2-yn-1-yl)-3-(((2,2-difluorocyclopropyl)methyl)thio)-N-(4-methyl-2-(pyridin-3-yl)thiazol-5-yl)propanamide], the mortality at 200 ppm in data set [1] and in data set [2] was 80 to 100% each time.
